Data on four compounds can be found in patent US20240189331A1, “NOVEL […] FILM FORMULATION” (INTELGENX CORP., priority 2021, published 2024).

Series [1] is described as follows: In vitro permeability study in 6 station Franz diffusion cell apparatus using porcine buccal mucosa. Conditions: for effect of acidifying agent in film formulation on permeation of psilocybin through pig mucosa membrane: psilocybin around its isoelectric point (pH=3.9).
For series [2] the following is noted: administered orally; cited from earlier work.
For series [3] the following is noted: cited from earlier work.

“Also recorded” adds a separate entry of the source.

As for `O=C(O)CC(O)(CC(=O)O)C(=O)O` [citric acid], in series [1], the “effect of acidifying agent in film formulation on permeation of psilocybin through pig mucosa membrane” value is reported as “triggers permeation”.

Take `O=P(O)(O)O` [phosphoric acid]: the “effect of acidifying agent in film formulation on permeation of psilocybin through pig mucosa membrane” value in series [1] is “triggers permeation”.

On to `CN(C)CCc1c[nH]c2cccc(OP(=O)(O)O)c12` [psilocybin, [3-(2-Dimethylaminoethyl)-1H-indol-4-yl]dihydrogen phosphate], for which, in series [2], the “drug absorbed into the bloodstream” value was “about 50%” and the “time of maximum plasma concentration” value is on record as “approximately 80 minutes”. The pka1 in series [3] (first phosphate oxygen) is on record as 1.3. For the same compound, the pka2 in series [3] (second phosphate oxygen) was 6.5. Further, the pka3 in series [3] (tertiary amine group) is 10.4.

Regarding “Benzalkonium chloride [Benzalkonium chloride (BKC)]”, the “effect of penetration enhancer on psilocybin diffusion through porcine buccal mucosa” value in series [1] (penetration enhancer in psilocybin film formulation, FIG. 4 and FIG. 5) was “improved buccal permeation; also recorded: significate increase”.
